Reference: patent publication US8017584B2, “GD3-mimetic peptides” (Otsuka Pharmaceutical Co., Ltd., priority 2000, dated 2011)
One block for each substance: values may come before it.

Tests used:
[1] = test system: T-cell-rich lymphocytes / IL-2-dependent CTLL2 cells; test: Cell response test: IL-2 activity (3H thymidine up-take of CTLL2 cells) in supernatant of spleen cells of mice immunized with R4 peptide (R4-KLH); format: cell-based, mouse; conditions: mice immunized with R4 peptide
Experimental: Using a fusion peptide R4-KLH obtained in Example 3 (4) between GD3R4 and KLH or a MAP form fusion peptide R4MAP-KLH created between GD3R4 and KLH, immunization was performed as described in (1) above.
Briefly, an emulsion mixed with an adjuvant (1:1, by volume) was administered to each member of groups of mice, each group consisting of 3 mice (CD-1), in an amount of 100 μL/mouse (for one administration (ip), peptide 30 μg/mouse) for immunization. In the case of R4-KLH, administration was performed every one week for one month, and subsequently every two weeks for one month; and in the case of R4MAP-KLH, every one week for 2 months. In any case, 4 days after the final immunization, blood was collected to thereby prepare antiserum samples.
(§1) The spleen aseptically removed from each of the above-immunized mice was minced in a 10% FCS-supplemented RPMI 1640 medium. By use of a nylon wool column, T-cell-rich lymphocytes were prepared and the cells were counted. The above medium containing the cells in an amount of 10^5 cells per 150 μL was added to each of the wells of a culture plate. PHA was added so as to attain a final concentration of 1 μg/mL. A peptide of the present invention or any of different gangliosides in PBS was added, and the mixture was incubated for 96 hours. A supernatant (100 μL) was obtained from each well. The IL-2 activity of the supernatant was determined through use of IL-2-dependent mouse cells, CTLL2. Briefly, the supernatant (100 μL) diluted 2 to 50-fold with a medium was added to the wells in an amount of 10^4 CTLL2 cells/well, followed by incubation at 37° C. for 48 hours. Subsequently, 3H-thymidine (0.5 μCi) was added to each well, followed by incubation for 6 hours. CTLL2 cells were recovered on a paper filter and counted for 3H.

[2] = test system: anti-GD3 antibody 4F6; test: ELISA of MAPs immobilized at various amounts with 4F6 (Example 5(2), FIG. 3); format: binding, mouse; conditions: MAPs or GD3 immobilized at various amounts
Source text: (1) In a manner similar to that described in Example 3, peptides of N-terminus 9 amino acid residues or C-terminus 9 amino acid residues of GD3R1, GD3R2, GD3R3, or GD3R4. The nomenclature and sequences of respective peptides employed in the present test are shown in FIG. 2 These were employed as multi-antigen peptides (MAPs). (2) In order to extend the research on bonding between the anti-GD3 antibody 4F6 and each of the GD3-mimetic peptides shown in FIG. 1, multi-antigen peptides (MAPs) were subjected to ELISA. MAP samples having a variety of concentrations shown on the X-axis in FIG. 3 were provided, and each sample was immobilized onto the wells of a 96-well plate. Subsequently, the wells were blocked with a blocking solution (TBS supplemented with 1% BSA, 0.1% skim milk, and 0.02% Tween 20) at 4° C. overnight. 4F6 (hybridoma supernatant: used in the neat form) was added (100 μL/well) for reaction at room temperature for 2 hours. After completion of reaction, the supernatant was discarded, and the wells were washed with a washing solution (TBS supplemented with 1% FBS and 0.05% Tween 20) six times. Subsequently, the wells were allowed to react with peroxidase-labeled anti-mouse IgG (diluted 1,000-fold with a blocking solution) at room temperature for 2 hours. The wells were again washed with a washing solution four times, and the amount of peroxidase enzyme remaining in each well was detected and quantitatively determined with the substrate TMB, whereby binding of MAP to 4F6 was investigated. The test was performed in triplicate, and the values in the graph are “mean ±SD.”

[3] = test system: binding between GD3 and 4F6 (anti-GD3 antibody); test: Inhibition by immobilized MAPs of binding between GD3 and 4F6 (Example 5(3), FIG. 4); parameters: species or system mouse; conditions: immobilized MAP or GD3 absorbs 4F6
Experimental: (3) The binding affinity shown in FIG. 3 was investigated in another method. Briefly, MAP samples having a variety of concentrations shown on the X-axis in FIG. 4 were provided. Each sample was immobilized onto the wells of a 96-well plate, and the wells were allowed to react with 4F6 (100 μL/well) at 4° C. overnight. On the following day, the supernatant (80 μL) was collected and added to the wells of another plate to which GD3 had been immobilized in advance (100 ng/well) for reaction at room temperature for 2 hours. After completion of reaction, the amount of antibody 4F6 that had been condensed with GD3 (i.e., that had not been absorbed by MAP) was detected and quantitatively determined through the method described (2) above, whereby inhibitory effect of MAP on binding of GD3 to 4F6 was investigated. The test was performed in triplicate, and the values in the graph are “mean ±SD.”

[4] = test system: binding between GD3 and 4F6; test: Inhibition by exogenously added MAPs of binding between GD3 and 4F6 (Example 5(4), FIG. 5); parameters: species or system mouse
Experimental: (4) Next, investigation was made as to whether binding between GD3R3 or GD3R4 and 4F6 occurred at the GD3 binding site of 4F6. To the wells of a plate to which GD3 had been immobilized (100 ng/well), each of the MAP samples having a variety of concentrations shown on the X-axis in FIG. 5 and 4F6 (100 μL/well) were simultaneously added, whereby an inhibitory test was performed. The test was performed in triplicate, and the values in the graph are “mean ±SD.”

[5] = test system: T-cell-rich lymphocytes / IL-2-dependent CTLL2 cells; test: Cell response test: IL-2 activity (3H thymidine up-take of CTLL2 cells) in supernatant of spleen cells of mice immunized with GD3; format: cell-based, mouse; conditions: mice immunized with GD3
Experimental: Similar to the case of immunization with R4-KLH, antiserum samples were also prepared through immunization with GD3 (30 μg).
as §1

[6] = test system: binding between GD3 and 4F6; test: Inhibition by nine-residue MAPs of binding between GD3 and 4F6 (Example 5(5), FIG. 6); parameters: species or system mouse; conditions: nine-residue MAP compared with the 15 residues
Experimental: Next, in an attempt to determine the domain required for establishing binding to anti-GD3 antibody 4F6 in GD3-mimetic peptides, an MAP of nine N-terminus residues of GD3R3 peptide and an MAP of nine C-terminus residues of the same GD3R3 peptide as shown in FIG. 2 were synthesized, their binding to 4F6 was studied by means of ELISA. ELISA was performed was performed in triplicate, and the values in the graphs are “mean ±SD.”

[7] = PHA 1 μg/mL + stimulant 0.5 μg/ml, supernatant dilution ½
[8] = stimulant 0.5 μg/ml, supernatant dilution 1/20
[9] = stimulant 0.5 μg/ml, supernatant dilution 1/50
[10] = stimulant 0.5 μg/ml, supernatant dilution ⅕
[11] = stimulant 1 μg/ml, supernatant dilution 1/20
[12] = stimulant 1 μg/ml, supernatant dilution 1/50
[13] = stimulant 1 μg/ml, supernatant dilution ½
[14] = stimulant 1 μg/ml, supernatant dilution ⅕
[15] = stimulant 2 μg/ml, supernatant dilution 1/20
[16] = stimulant 2 μg/ml, supernatant dilution 1/50
[17] = stimulant 2 μg/ml, supernatant dilution ½
[18] = stimulant 2 μg/ml, supernatant dilution ⅕
[19] = stimulant 5 μg/ml, supernatant dilution 1/20
[20] = stimulant 5 μg/ml, supernatant dilution 1/50
[21] = stimulant 5 μg/ml, supernatant dilution ½
[22] = stimulant 5 μg/ml, supernatant dilution ⅕

- inhibition of GD3 binding to 4F6 by immobilized sample (words, FIG. 4) [3]: inhibit GD3 from binding to the antibody
- inhibitory effect of exogenously added sample on binding between GD3 and 4F6 (words, FIG. 5) ([4]; added simultaneously with 4F6 to GD3 100 ng/well): exhibited inhibitory effect
- order of binding strength to 4F6 ([4]; deduced from FIG. 5): GD3>GD3R3>GD3R4
Substance: NeuAc α2-8 NeuAc α2-3 Gal β1-4 Glc β1-1 Cer [GD3, reference compound]
- 3H Thymidine up-take into CTLL2 cells, mean ± SE (4 wells) [1, 7]: 2635 ± 308
- 3H Thymidine up-take into CTLL2 cells, mean ± SE (4 wells) [1, 8]: 850 ± 87
- 3H Thymidine up-take into CTLL2 cells, mean ± SE (4 wells) [1, 9]: 169 ± 25
- 3H Thymidine up-take into CTLL2 cells, mean ± SE (4 wells) [1, 10]: 1792 ± 154
- 3H Thymidine up-take into CTLL2 cells, mean ± SE (4 wells) [1, 11]: 794 ± 82
- 3H Thymidine up-take into CTLL2 cells, mean ± SE (4 wells) [1, 12]: 202 ± 24
- 3H Thymidine up-take into CTLL2 cells, mean ± SE (4 wells) [1, 13]: 2721 ± 284
- 3H Thymidine up-take into CTLL2 cells, mean ± SE (4 wells) [1, 14]: 1658 ± 134
- 3H Thymidine up-take into CTLL2 cells, mean ± SE (4 wells) [1, 15]: 809 ± 74
- 3H Thymidine up-take into CTLL2 cells, mean ± SE (4 wells) [1, 16]: 212 ± 28
- 3H Thymidine up-take into CTLL2 cells, mean ± SE (4 wells) [1, 17]: 2797 ± 295
- 3H Thymidine up-take into CTLL2 cells, mean ± SE (4 wells) [1, 18]: 1722 ± 163
- 3H Thymidine up-take into CTLL2 cells, mean ± SE (4 wells) [1, 19]: 764 ± 68
- 3H Thymidine up-take into CTLL2 cells, mean ± SE (4 wells) [1, 20]: 184 ± 23
- 3H Thymidine up-take into CTLL2 cells, mean ± SE (4 wells) [1, 21]: 2619 ± 316
- 3H Thymidine up-take into CTLL2 cells, mean ± SE (4 wells) [1, 22]: 1636 ± 145
- binding of 4F6 to immobilized sample (words, FIG. 3) [2]: declined from the concentration 0.8 μg/well and higher
- 3H Thymidine up-take into CTLL2 cells, mean ± SE (4 wells) [5, 7]: 2795 ± 175
- 3H Thymidine up-take into CTLL2 cells, mean ± SE (4 wells) [5, 8]: 810 ± 72
- 3H Thymidine up-take into CTLL2 cells, mean ± SE (4 wells) [5, 9]: 207 ± 22
- 3H Thymidine up-take into CTLL2 cells, mean ± SE (4 wells) [5, 10]: 1876 ± 152
- 3H Thymidine up-take into CTLL2 cells, mean ± SE (4 wells) [5, 11]: 762 ± 55
- 3H Thymidine up-take into CTLL2 cells, mean ± SE (4 wells) [5, 12]: 186 ± 27
- 3H Thymidine up-take into CTLL2 cells, mean ± SE (4 wells) [5, 13]: 2568 ± 235
- 3H Thymidine up-take into CTLL2 cells, mean ± SE (4 wells) [5, 14]: 1834 ± 169
- 3H Thymidine up-take into CTLL2 cells, mean ± SE (4 wells) [5, 15]: 758 ± 61
- 3H Thymidine up-take into CTLL2 cells, mean ± SE (4 wells) [5, 16]: 197 ± 28
- 3H Thymidine up-take into CTLL2 cells, mean ± SE (4 wells) [5, 17]: 2453 ± 264
- 3H Thymidine up-take into CTLL2 cells, mean ± SE (4 wells) [5, 18]: 1901 ± 188
- 3H Thymidine up-take into CTLL2 cells, mean ± SE (4 wells) [5, 19]: 794 ± 68
- 3H Thymidine up-take into CTLL2 cells, mean ± SE (4 wells) [5, 20]: 179 ± 23
- 3H Thymidine up-take into CTLL2 cells, mean ± SE (4 wells) [5, 21]: 2656 ± 257
- 3H Thymidine up-take into CTLL2 cells, mean ± SE (4 wells) [5, 22]: 1857 ± 185

- ability to inhibit binding between GD3 and 4F6 (words, FIG. 6) [6]: comparable ability to the 15 residues
Substance: GD3R3C9: MAP of nine C-terminus residues of GD3R3 peptide (YAQRFFLLS)
